In ChEMBL document CHEMBL5126669, “Discovery of 5,7-Dihydro-6H-pyrrolo[2,3-d]pyrimidin-6-ones as Highly Selective CDK2 Inhibitors” (ACS Med Chem Lett, 2022):
Blank lines part the entries; values can stand above or below the compound they belong to.

How the values were obtained:
[1] = molecular target: Cyclin-dependent kinase 2/cyclin E1 (Homo sapiens, UniProt P24941); test: Inhibition of recombinant human N-terminal GST-tagged full-length CDK2/Flag-tagged cyclinE1 expressed in baculovirus expression system using eIF4E-binding protein-1 peptide as substrate incubated for 1 hr in presence of ATP by HTRF assay
[2] = Inhibition of CDK1/cyclin B (unknown origin) in presence of ATP; set-up: species or system Homo sapiens
[3] = organism: Homo sapiens; test: Selectivity ratio of IC50 for inhibition of CDK1 in human OVCAR3 cells to IC50 for inhibition of CDK2 in human COV318 cells; format: cell-based
[4] = molecular target: Cyclin-dependent kinase 2 (Homo sapiens, UniProt P24941); test: Inhibition of CDK2 in human COV318 cells incubated for overnight in presence of human whole blood by HTRF assay; format: cell-based
[5] = Intrinsic clearance in human liver microsomes at 1 uM measured upto 30 mins by LC/MS analysis; format: ADME, Microsome; conditions: read-out: CLH (converted)
[6] = Cmax in Sprague-Dawley rat at 3 mg/kg, po measured upto 24 hrs by LC-MS/MS analysis; format: ADME, organism-based; set-up: dose 3 mg/kg, time < 24 hrs, route po; conditions: in vivo
[7] = Cmax in Cynomolgus monkey at 2 mg/kg, po measured upto 24 hrs by LC-MS/MS analysis; format: ADME, organism-based, Macaca fascicularis; set-up: dose 2 mg/kg, time < 24 hrs, route po; conditions: in vivo
[8] = AUC in Sprague-Dawley rat at 3 mg/kg, po measured upto 24 hrs by LC-MS/MS analysis; format: ADME, organism-based; set-up: dose 3 mg/kg, time < 24 hrs, route po; conditions: in vivo
[9] = AUC in Cynomolgus monkey at 2 mg/kg, po measured upto 24 hrs by LC-MS/MS analysis; format: ADME, organism-based, Macaca fascicularis; set-up: dose 2 mg/kg, time < 24 hrs, route po; conditions: in vivo
[10] = Oral bioavailability in Sprague-Dawley rat at 3 mg/kg measured upto 24 hrs by LC-MS/MS analysis; format: ADME, organism-based; conditions: in vivo
[11] = Oral bioavailability in Cynomolgus monkey at 2 mg/kg measured upto 24 hrs by LC-MS/MS analysis; format: ADME, organism-based, Macaca fascicularis; conditions: in vivo
[12] = Hepatic blood flow in Sprague-Dawley rat at 0.5 mg/kg, iv measured upto 24 hrs by LC-MS/MS analysis; format: ADME, organism-based; conditions: in vivo
[13] = Hepatic blood flow in Cynomolgus monkey at 0.3 mg/kg, iv measured upto 24 hrs by LC-MS/MS analysis; format: ADME, organism-based, Macaca fascicularis; conditions: in vivo
[14] = Volume of distribution at steady state in Sprague-Dawley rat at 0.5 mg/kg, iv measured upto 24 hrs by LC-MS/MS analysis; format: ADME, organism-based; conditions: Sprague-Dawley, in vivo, read-out: Vdss
[15] = Volume of distribution at steady state in Cynomolgus monkey at 0.3 mg/kg, iv measured upto 24 hrs by LC-MS/MS analysis; format: ADME, organism-based, Macaca fascicularis; conditions: in vivo, read-out: Vdss
[16] = molecular target: Cytochrome P450 3A4 (Homo sapiens, UniProt P08684); test: Inhibition of CYP3A4 (unknown origin) at >25 uM; format: ADME
[17] = molecular target: hERG (KCNH2) (Homo sapiens, UniProt Q12809); test: Displacement of [3H]Dofetilide from human ERG at 10 uM incubated for 24 hrs by filter binding assay relative to control; format: toxicity; conditions: probe [3H]dofetilide
[18] = molecular target: T1, Cytochrome P450 1A2 (Homo sapiens, UniProt P05177); test: Inhibition of CYP1A2 (unknown origin) at >25 uM; format: ADME
T1 sequence (P05177 whole entry): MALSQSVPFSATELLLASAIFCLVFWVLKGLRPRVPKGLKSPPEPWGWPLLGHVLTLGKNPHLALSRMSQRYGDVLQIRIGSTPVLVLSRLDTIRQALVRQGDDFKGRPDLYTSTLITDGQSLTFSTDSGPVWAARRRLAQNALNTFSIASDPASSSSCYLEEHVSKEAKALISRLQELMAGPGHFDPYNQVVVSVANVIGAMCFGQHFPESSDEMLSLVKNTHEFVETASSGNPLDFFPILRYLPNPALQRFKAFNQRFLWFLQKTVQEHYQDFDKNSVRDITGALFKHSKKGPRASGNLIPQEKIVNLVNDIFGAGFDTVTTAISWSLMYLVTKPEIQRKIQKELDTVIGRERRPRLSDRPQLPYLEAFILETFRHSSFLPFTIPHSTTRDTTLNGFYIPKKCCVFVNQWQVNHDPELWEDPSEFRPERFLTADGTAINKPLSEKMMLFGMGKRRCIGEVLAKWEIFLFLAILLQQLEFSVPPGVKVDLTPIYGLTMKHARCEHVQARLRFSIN

[19] = molecular target: T2, Cytochrome P450 2C8 (Homo sapiens, UniProt P10632); test: Inhibition of CYP2C8 (unknown origin) at >25 uM; format: ADME
T2 sequence (P10632 whole entry): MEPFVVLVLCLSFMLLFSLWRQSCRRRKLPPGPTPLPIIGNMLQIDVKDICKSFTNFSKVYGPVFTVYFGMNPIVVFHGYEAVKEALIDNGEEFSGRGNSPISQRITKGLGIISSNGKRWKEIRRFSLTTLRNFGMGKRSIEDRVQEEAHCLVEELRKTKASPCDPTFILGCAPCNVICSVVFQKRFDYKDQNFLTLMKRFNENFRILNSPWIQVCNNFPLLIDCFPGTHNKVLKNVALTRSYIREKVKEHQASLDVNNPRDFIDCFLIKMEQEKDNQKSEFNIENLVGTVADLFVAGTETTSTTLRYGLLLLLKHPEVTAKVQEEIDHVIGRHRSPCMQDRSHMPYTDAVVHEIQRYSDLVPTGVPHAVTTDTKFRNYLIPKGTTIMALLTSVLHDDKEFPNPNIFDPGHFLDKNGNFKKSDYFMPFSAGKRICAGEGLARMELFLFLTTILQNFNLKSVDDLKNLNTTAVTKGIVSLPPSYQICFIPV

[20] = molecular target: Cytochrome P450 2C19 (Homo sapiens, UniProt P33261); test: Inhibition of CYP2C19 (unknown origin) at >25 uM; format: ADME
[21] = molecular target: T3, Cytochrome P450 2B6 (Homo sapiens, UniProt P20813); test: Inhibition of CYP2B6 (unknown origin) at >25 uM; format: ADME
T3 sequence (P20813 whole entry): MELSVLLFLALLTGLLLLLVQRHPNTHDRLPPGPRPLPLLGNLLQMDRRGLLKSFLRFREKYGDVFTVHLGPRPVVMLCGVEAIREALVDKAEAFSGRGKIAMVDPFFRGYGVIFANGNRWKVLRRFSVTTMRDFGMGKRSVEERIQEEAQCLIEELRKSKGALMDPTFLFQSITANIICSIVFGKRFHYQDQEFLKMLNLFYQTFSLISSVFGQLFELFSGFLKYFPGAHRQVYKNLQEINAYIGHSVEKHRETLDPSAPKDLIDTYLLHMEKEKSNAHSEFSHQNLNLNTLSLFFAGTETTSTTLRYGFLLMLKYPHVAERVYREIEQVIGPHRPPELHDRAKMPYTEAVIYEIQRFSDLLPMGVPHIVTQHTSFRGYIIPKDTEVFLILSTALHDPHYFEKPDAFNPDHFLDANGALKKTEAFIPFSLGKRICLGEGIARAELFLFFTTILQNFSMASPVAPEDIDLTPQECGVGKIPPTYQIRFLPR

[22] = molecular target: Cytochrome P450 2C9 (Homo sapiens, UniProt P11712); test: Inhibition of CYP2C9 (unknown origin) at >25 uM; format: ADME
[23] = molecular target: Cytochrome P450 2D6 (Homo sapiens, UniProt P10635); test: Inhibition of CYP2D6 (unknown origin) at >25 uM; format: ADME
[24] = organism: Homo sapiens; test: Selectivity ratio of IC50 for inhibition of CDK1/cyclin B (unknown origin) to IC50 for inhibition recombinant human N-terminal GST-tagged full-length CDK2/Flag-tagged cyclinE1 expressed in baculovirus expression system
[25] = organism: Homo sapiens; test: Selectivity ratio of IC50 for inhibition of CDK4/cyclin D1 (unknown origin) to IC50 for inhibition recombinant human N-terminal GST-tagged full-length CDK2/Flag-tagged cyclinE1 expressed in baculovirus expression system
[26] = organism: Homo sapiens; test: Selectivity ratio of IC50 for inhibition of CDK6/cyclin D1 (unknown origin) to IC50 for inhibition recombinant human N-terminal GST-tagged full-length CDK2/Flag-tagged cyclinE1 expressed in baculovirus expression system
[27] = molecular target: Cyclin-dependent kinase 1 (Homo sapiens, UniProt P06493); test: Inhibition of CDK1 in human OVCAR3 cells incubated for 30 mins in presence of pNPM T199 by western blot analysis; format: cell-based, OVCAR-3
Sequence of Cyclin-dependent kinase 1 (P06493 whole entry): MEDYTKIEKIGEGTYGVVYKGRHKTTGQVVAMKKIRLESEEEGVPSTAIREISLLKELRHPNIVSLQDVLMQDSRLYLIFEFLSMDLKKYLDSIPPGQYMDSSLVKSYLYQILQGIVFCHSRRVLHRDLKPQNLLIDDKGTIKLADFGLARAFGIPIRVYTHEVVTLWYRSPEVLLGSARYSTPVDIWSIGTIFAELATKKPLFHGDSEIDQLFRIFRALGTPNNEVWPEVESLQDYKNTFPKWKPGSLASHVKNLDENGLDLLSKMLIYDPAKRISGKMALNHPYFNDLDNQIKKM

Sequence of hERG (KCNH2) (Q12809 whole entry): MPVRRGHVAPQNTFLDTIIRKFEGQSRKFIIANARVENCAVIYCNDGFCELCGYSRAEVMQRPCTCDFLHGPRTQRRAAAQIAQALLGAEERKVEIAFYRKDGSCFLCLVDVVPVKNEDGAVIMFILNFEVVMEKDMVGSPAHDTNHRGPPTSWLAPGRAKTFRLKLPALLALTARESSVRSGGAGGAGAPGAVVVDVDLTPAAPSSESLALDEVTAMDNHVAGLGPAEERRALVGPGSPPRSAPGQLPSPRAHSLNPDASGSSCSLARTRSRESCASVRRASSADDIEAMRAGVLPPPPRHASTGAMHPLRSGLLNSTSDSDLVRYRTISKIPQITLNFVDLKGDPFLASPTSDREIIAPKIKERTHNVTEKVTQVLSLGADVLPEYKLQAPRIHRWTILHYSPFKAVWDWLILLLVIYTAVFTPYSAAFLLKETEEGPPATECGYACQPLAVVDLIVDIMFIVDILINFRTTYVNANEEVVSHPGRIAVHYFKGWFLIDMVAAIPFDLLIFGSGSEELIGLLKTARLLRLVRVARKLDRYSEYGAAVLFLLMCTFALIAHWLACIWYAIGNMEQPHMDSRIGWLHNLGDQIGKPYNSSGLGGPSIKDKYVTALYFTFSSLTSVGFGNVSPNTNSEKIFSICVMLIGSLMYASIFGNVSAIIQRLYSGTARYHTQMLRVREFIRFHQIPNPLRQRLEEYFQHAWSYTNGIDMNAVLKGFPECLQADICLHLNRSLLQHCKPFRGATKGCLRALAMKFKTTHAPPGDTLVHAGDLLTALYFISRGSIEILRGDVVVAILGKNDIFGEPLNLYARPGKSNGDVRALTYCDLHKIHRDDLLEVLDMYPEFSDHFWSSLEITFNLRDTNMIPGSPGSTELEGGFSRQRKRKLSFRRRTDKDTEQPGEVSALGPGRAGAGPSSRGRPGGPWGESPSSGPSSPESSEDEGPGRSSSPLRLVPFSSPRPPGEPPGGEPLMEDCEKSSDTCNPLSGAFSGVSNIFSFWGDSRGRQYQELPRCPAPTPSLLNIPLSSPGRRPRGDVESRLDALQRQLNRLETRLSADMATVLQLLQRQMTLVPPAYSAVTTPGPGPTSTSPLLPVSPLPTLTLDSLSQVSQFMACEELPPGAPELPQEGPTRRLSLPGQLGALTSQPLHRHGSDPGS
Sequence of Cytochrome P450 2D6 (P10635 whole entry): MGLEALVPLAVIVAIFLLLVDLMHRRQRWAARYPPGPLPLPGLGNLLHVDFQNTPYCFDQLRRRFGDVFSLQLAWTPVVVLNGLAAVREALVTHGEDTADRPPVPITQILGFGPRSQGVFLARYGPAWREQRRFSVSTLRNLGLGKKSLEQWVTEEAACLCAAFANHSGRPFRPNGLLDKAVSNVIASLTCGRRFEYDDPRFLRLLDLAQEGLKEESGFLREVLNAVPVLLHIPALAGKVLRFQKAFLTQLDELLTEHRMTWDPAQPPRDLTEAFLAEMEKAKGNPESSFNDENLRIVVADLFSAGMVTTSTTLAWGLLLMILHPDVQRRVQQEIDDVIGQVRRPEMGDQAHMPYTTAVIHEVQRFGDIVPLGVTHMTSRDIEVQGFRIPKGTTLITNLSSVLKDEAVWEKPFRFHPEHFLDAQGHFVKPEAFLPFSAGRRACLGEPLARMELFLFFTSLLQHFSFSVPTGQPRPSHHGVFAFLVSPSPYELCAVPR
Sequence of Cytochrome P450 2C19 (P33261 whole entry): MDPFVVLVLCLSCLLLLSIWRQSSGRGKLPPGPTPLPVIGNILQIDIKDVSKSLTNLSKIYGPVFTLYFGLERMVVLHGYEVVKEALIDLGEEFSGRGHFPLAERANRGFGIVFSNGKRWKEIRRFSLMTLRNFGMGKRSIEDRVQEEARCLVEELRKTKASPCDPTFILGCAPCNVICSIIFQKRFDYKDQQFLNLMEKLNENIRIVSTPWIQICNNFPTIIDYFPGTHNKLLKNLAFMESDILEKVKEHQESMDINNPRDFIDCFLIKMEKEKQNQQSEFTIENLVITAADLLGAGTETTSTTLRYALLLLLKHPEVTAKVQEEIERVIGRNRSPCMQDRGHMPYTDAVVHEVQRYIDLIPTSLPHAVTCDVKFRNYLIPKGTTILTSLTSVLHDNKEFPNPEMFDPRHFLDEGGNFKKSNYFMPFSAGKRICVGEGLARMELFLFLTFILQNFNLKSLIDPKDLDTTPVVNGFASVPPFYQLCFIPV
Sequence of Cytochrome P450 2C9 (P11712 whole entry): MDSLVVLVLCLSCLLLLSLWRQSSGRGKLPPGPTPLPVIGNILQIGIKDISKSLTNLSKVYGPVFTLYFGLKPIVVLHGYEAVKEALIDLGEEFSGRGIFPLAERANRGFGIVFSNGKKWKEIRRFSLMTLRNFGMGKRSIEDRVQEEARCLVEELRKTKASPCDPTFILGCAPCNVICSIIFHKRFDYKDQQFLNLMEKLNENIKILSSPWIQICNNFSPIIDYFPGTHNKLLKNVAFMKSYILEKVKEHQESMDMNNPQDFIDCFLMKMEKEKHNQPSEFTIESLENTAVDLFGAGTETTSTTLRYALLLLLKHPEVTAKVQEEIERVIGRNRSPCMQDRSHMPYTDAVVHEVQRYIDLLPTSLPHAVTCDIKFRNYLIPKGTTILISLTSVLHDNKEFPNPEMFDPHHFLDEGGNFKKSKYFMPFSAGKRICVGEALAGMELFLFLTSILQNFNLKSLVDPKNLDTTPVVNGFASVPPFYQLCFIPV
Sequence of Cytochrome P450 3A4 (P08684 whole entry): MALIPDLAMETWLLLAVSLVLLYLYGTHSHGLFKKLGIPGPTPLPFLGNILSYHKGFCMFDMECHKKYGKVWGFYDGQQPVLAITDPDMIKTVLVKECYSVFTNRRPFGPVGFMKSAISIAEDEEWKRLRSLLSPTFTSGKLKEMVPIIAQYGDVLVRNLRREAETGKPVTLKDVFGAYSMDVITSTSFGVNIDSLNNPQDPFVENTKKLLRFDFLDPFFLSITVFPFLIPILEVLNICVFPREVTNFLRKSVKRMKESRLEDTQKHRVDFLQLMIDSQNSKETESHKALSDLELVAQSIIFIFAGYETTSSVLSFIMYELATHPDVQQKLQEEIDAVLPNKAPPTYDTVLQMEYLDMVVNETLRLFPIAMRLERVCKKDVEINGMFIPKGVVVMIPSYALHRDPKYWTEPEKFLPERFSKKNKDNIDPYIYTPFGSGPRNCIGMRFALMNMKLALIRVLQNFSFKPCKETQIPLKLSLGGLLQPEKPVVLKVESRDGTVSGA

Structure (SMILES): CS(=O)(=O)N1CCC(Nc2ncc3c(n2)N(c2ccccc2)C(=O)C32CC2)CC1
IC50 [1]: 1.61 µM

Structure (SMILES): [2H]C([2H])([2H])NS(=O)(=O)c1ccc(Nc2ncc3c(n2)N([C@@H]2CCC[C@@H](O)C2)C(=O)C32CC2)cc1
IC50 [4]: 0.642 µM | predicted hepatic clearance at 1 µM [5]: 11.7 mL/min/kg | Cmax [6]: 992 nM | Cmax [7]: 138 nM | AUC at 24 h [8]: 1.15 µM·h | AUC at 24 h [9]: 0.739 µM·h | bioavailability [10]: 100% | bioavailability [11]: 100% | QH [12]: > 100% | QH [13]: 70% | Vd [14]: 1.1 L/kg | Vd [15]: 3.5 L/kg | inhibition (INH) [16]: Active | inhibition at 24 h, 10 µM [17]: 9.7% | inhibition (INH) [18]: Active | inhibition (INH) [19]: Active | inhibition (INH) [20]: Active | inhibition (INH) [21]: Active | inhibition (INH) [22]: Active | inhibition (INH) [23]: Active

Structure (SMILES): C[C@@H]1CCC[C@H]1N1C(=O)C2(CC2)c2cnc(Nc3ccc(S(=O)(=O)N[C@@H]4CCCN(C)C4)cc3)nc21
IC50 [1]: 0.00032 µM | Ratio IC50 [24]: 100 | Ratio IC50 [25]: 8 | Ratio IC50 [26]: 9 | IC50 [4]: 0.044 µM | predicted hepatic clearance at 1 µM [5]: > 18.3 mL/min/kg

Structure (SMILES): CNS(=O)(=O)c1ccc(Nc2ncc3c(n2)N([C@H]2CCC[C@@H]2C)C(=O)C32CC2)cc1 (relative stereo)
IC50 [1]: 0.00033 µM | Ratio IC50 [24]: 890 | Ratio IC50 [25]: 33 | Ratio IC50 [26]: 48 | IC50 [4]: 0.23 µM | predicted hepatic clearance at 1 µM [5]: 18.3 mL/min/kg

Structure (SMILES): CNS(=O)(=O)c1ccc(Nc2ncc3c(n2)N(c2cc(F)ccc2Cl)C(=O)C32CC2)cc1
IC50 [1]: 0.00062 µM | Ratio IC50 [24]: 1900 | Ratio IC50 [25]: 58 | Ratio IC50 [26]: 120 | IC50 [4]: 0.46 µM | predicted hepatic clearance at 1 µM [5]: 15 mL/min/kg

Now from value to compound, other results behind:

IC50 [1]: 0.023 µM | IC50 [2]: 1.69 µM
Structure (SMILES): CC[C@@H](C(F)F)N1C(=O)C2(CC2)c2cnc(NC3CCN(S(C)(=O)=O)CC3)nc21
Ratio IC50 [3]: 74

IC50 [1]: 0.007 µM | IC50 [2]: 0.54 µM
Structure (SMILES): C[C@H]1CCC[C@@H]1N1C(=O)C2(CC2)c2cnc(NC3CCN(S(C)(=O)=O)CC3)nc21 (mixture of isomers)
Ratio IC50 [3]: 77

IC50 [1]: 0.102 µM | IC50 [2]: > 5 µM | IC50 [27]: > 5 µM
Structure (SMILES): CS(=O)(=O)N1CCC(Nc2ncc3c(n2)N(C2CCCC2)C(=O)C32CC2)CC1

IC50 [1]: 2.2 µM
Structure (SMILES): CS(=O)(=O)N1CCC(Nc2ncc3c(n2)N(C2CCOCC2)C(=O)C32CC2)CC1

IC50 [1]: 0.017 µM | IC50 [2]: 1.28 µM
Structure (SMILES): Cn1cc(S(=O)(=O)N2CCC(Nc3ncc4c(n3)N(C3CCCC3)C(=O)C43CC3)CC2)cn1
Ratio IC50 [3]: 75

IC50 [1]: 0.557 µM | IC50 [2]: > 5 µM
Structure (SMILES): CCC1(C)C(=O)N(C2CCCC2)c2nc(NC3CCN(S(C)(=O)=O)CC3)ncc21 (centres undefined)
